Laboratory results taken from patent US20050070461A1, “Means and methods for altering the motility of the gastrointestinal tract” (priority 2002, published 2005).

Columns and labels:
[1] = system: murine model for postoperative ileus (gastroparesis after intestinal manipulation); experiment: Gastric emptying by scintigraphic imaging after intestinal manipulation (murine model for postoperative ileus); format: in vivo, mice; conditions: for gastric emptying rate k / half-emptying time: MAb pre-operative, hexamethonium or guanethidine postoperative injection
[2] = system: MPO-containing leukocytes in ileal muscularis; experiment: Leukocyte recruitment / MPO activity in ileal muscularis after intestinal manipulation; format: in vivo, mice
[3] = system: gastric emptying in control mice; experiment: Gastric emptying in control mice given the anesthetics

Question: `C[N+](C)(C)CCCCCC[N+](C)(C)C` [hexamethonium] was tested. Which gastroparesis ([1]; 6 hours after IM) did it give?
Answer: Its gastroparesis is “reversed the gastroparesis partially”.

Question: And the “gastric emptying rate k” value ([1]; 6 hours after IM)?
Answer: Its value is “normalized”.

Question: And the half-emptying time ([1]; 6 hours after IM)?
Answer: The half-emptying time was “normalized”.

Question: And the development of gastroparesis ([1]; 24 hours after IM)?
Answer: Its development of gastroparesis is “completely”.

Question: And the “gastric emptying rate k” value ([1]; 24 hours after IM)?
Answer: Its value is “normalized”.

Question: And the half-emptying time ([1]; 24 hours after IM)?
Answer: Its half-emptying time is “normalized”.

Question: What about the development of gastroparesis ([1]; mice, time not stated) of the same compound?
Answer: The development of gastroparesis was “capable of preventing the development of gastroparesis”.

Question: And the “leukocyte influx / recruitment in ileal muscularis (MPO-staining cells)” value ([2]; 24 hours after IM)?
Answer: Its value is “did not affect”.

Question: And the “amount of MPO activity in muscularis homogenates” value ([2]; 24 hours after surgery)?
Answer: The value was “did not affect”.

Question: `CNC1(c2ccccc2Cl)CCCCC1=O` (stereo not shown) [ketamine] was tested. Which gastric emptying ([3]; xylazine 20 mg/kg in combination ketamine 100 mg/kg) did it give?
Answer: Its gastric emptying is “did not alter gastric emptying”.

Question: For `CN1CCC(=C2c3ccccc3CC(=O)c3sccc32)CC1` [ketotifen], which development of gastroparesis ([1]; 24 hours after IM) is on record?
Answer: Its development of gastroparesis is “could be prevented”.

Question: And the “decrease of postoperative recruitment of MPO-containing leukocytes compared to vehicle” value ([2]; 24 hours after IM, ketotifen 10 mg/kg p.o. for five days prior to surgery)?
Answer: Its value is 45%.

Question: How did the gastric emptying ([3]; xylazine 20 mg/kg used alone) turn out when `Cc1cccc(C)c1N=C1NCCCS1` [xylazine] was run?
Answer: The gastric emptying was “did not alter gastric emptying”.
